Experimental data published in patent US10450549B2, “Aryloxyphenoxypropionate tolerance in turfrgass species and use of AAD1 as a selectable marker” (Dow AgroSciences, LLC, priority 2004, dated 2019).
Where two headings read alike, the source gives them in different places.

Key:
AAD1 (v1) = molecular target: T1, AAD1 (v1) (Sphingobium herbicidovorans, UniProt Q8KSC8); assay: Colorimetric phenol detection assay of AAD1 (v1) activity (purified enzyme or E. coli extract); type: biochemical; conditions: for activity of AAD1 (v1) E. coli extract on substrate: 0.5 mM substrate, 4 μl extract, 15 min
T1 construct: made in house; host or cells: E. coli BL-21 Star (DE3), plasmid pDAB3203

[1] = tested on: Agrostis palustris var. Pencross; assay: Bentgrass plate test bioassay for herbicide degradation; type: in vivo; conditions: for GR50 ratio: enzyme-expressing lysate vs blank vector, ≥ 2 = threshold
Protocol: Because of the selective nature of the herbicides being tested (i.e., monocot plants controlled by AOPP herbicides and dicot plants controlled by auxinic herbicides), wildtype Agrostis palustris var. Pencross and Arabidopsis thaliana var. Columbia were used as monocot and dicot test species, respectively. Each species is amenable to germination and growth in small Petri dishes.
Twenty to thirty sterilized seeds for each test species used were added onto a sterile, solidified agar Plate Test Medium (PTM) [2.5 mM KNO3, 2.5 mM KH2PO4, […], 10 mM NaEDTA (pH 8.0), 2 mM MgSO4, 2 mM Ca(NO3) 2, 70 μM H3BO3, 14 μM MnCl2, 0.5 μM CuSO4, 1 μM ZnSO4, 0.2 μM NaMoO4.2H2O, 10 μM NaCl, 10 nM CoCl2.H2O, 0.8% (w/v) sucrose, 0.4% agarose (w/v)] for bioassay in 60×15-mm Petri dishes (Falcon 1007). PTM was additionally modified by adding up to six rates of test herbicide standards or herbicide-enzyme test solution dilutions such that the four-fold concentration increments covered a rate range of three orders of magnitude with the GR50 rate (50% growth reduction) approximately in the center of the range.
For herbicide-enzyme test solutions, the maximal concentration was determined based on the nominal concentration before any subsequent enzymatic degradation would occur. Seeds were evenly spread by adding 3 ml of melted PTM of the same composition, swirling, and allowing to solidify. Plates were sealed and maintained under sterile conditions in a low light growth chamber (24 h day^−1, 100 μE/m^2s^1, 23° C.) for 7 days. Root length or root+shoot length were measured for five randomly chosen Arabidopsis and bentgrass plants, respectively, average mean length (percent of untreated control) vs. nominal herbicide concentration and GR50 determined.

[2] = tested on: F1 corn containing AAD1 (v3), PAT, and glyphosate resistance genes; assay: Greenhouse injury of F1 corn stacked with AAD1 (v3), PAT and glyphosate resistance (2,4-D DMA, glyphosate, glufosinate and combinations); type: in vivo; conditions: RR/PAT/AAD1
Source text: Homozygous T2 AAD1 (v3)/PAT corn plants were crossed with glyphosate resistant corn plants producing F1 seed containing AAD1 (v3), PAT, and glyphosate resistance genes as described in the previous example.
(§1) F1 seeds were planted individually into 3-inch pots prepared with Metro-Mix® 360 growing medium (Sun Gro Horticulture). […] For the remainder of the study the plants were subirrigated with deionized water.
(§2) The plants were sprayed with rates of 2,4-D DMA, glyphosate, glufosinate, and various combinations of the three. All applications were formulated in 200 mM Hepes buffer (pH 7.5). In spray applications where glufosinate was present the treatment was formulated with the addition of 2% w/v ammonium sulfate.
(§3) At 3 and 14 days after treatment (DAT) plants were evaluated. Plants were assigned injury rating with respect to stunting, chlorosis, and necrosis. Plants assigned an injury rating of 90% or above are considered dead.

Hi II X 5XH751 = assay: Greenhouse injury of non-transformed Hi II X 5XH751 corn (2,4-D DMA, glyphosate, glufosinate and combinations); type: in vivo
Protocol: as §1, §2, §3

[3] = Agrostis stolonifera, AAD1 (v1)-expressing lysate, nominal concentration, read-out: GR50, Chemical + AAD1 v1
[4] = Escherichia coli, in Agrostis stolonifera, cell lysate of E. coli pET vector without gene insert, read-out: GR50, Chemical + Blank Vector

T1 sequence (Q8KSC8 whole entry): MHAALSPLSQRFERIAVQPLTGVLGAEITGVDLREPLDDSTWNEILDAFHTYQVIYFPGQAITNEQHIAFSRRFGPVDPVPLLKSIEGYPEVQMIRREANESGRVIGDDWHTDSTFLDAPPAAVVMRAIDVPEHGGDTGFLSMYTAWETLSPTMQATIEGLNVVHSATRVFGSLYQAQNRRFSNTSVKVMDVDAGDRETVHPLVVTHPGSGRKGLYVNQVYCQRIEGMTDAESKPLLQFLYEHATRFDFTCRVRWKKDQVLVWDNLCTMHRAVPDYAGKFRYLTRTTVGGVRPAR

Structure (SMILES) | activity of AAD1 (v1) E. coli extract on substrate (AAD1 (v1)) | A510, AAD1 (AAD1 (v1); Table 4, substrate 1 mM, 1 μg purified AAD1 (v1) per 0.16 ml assay) | A510, AAD1 (10x) (AAD1 (v1); Table 4, substrate 1 mM, 10 μg purified AAD1 (v1) per 0.16 ml assay) | herbicidal activity after AAD1 (v1) treatment, bentgrass plate bioassay ([1]; AAD1 (v1) extract) | IC50 [1, 3] [nM] | IC50 [1, 4] [nM] | GR50 ratio [1] | IC50 ([1]; Agrostis stolonifera, 168 h, root+shoot length, 7 days, read-out: GR50, Chemical alone) [nM] | % Injury at 14 DAT Ave ([2]; 470 g ae/ha (1X)) [%] | % Injury at 14 DAT Ave ([2]; 940 g ae/ha (2X)) [%] | % Injury at 14 DAT Ave ([2]; 1880 g ae/ha (4X)) [%] | % Injury at 14 DAT Ave (Hi II X 5XH751; 470 g ae/ha (1X)) [%] | % Injury at 14 DAT Ave (Hi II X 5XH751; 940 g ae/ha (2X)) [%] | % Injury at 14 DAT Ave (Hi II X 5XH751; 1880 g ae/ha (4X)) [%]
CC(Oc1ccc(Oc2ccc(Cl)cc2Cl)cc1)C(=O)O (racemic) [(R,S)- diclofop] | cleaved | 0.155 | 1.663 | loss of herbicidal activity | 130 | 20 | 7 | – | – | – | – | – | – | –
CC(Oc1ccc(Oc2ncc(C(F)(F)F)cc2Cl)cc1)C(=O)O (stereo not drawn) [Haloxyfop-RS] | cleaved | – | – | – | 520 | 21 | 25 | 28 | – | – | – | – | – | –
CP(=O)(O)CCC(N)C(=O)O (stereo not drawn) [glufosinate] | – | – | – | – | – | – | – | – | 0 | 3 | 15 | 80 | 90 | 96
